Measured values: patent publication US8901038B2, “Biphenyl-substituted cyclic ketoenols” (Bayer CropScience AG, priority 2010, dated 2014)

Columns and labels:
[1] = system: larvae of the mustard beetle (Phaedon cochleariae); test: Phaedon test (PHAECO spray treatment); format: in vivo; conditions: application rate 500 g/ha; Chinese cabbage leaf discs sprayed; after 7 days
Experimental: Phaedon Test (PHAECO Spray Treatment)
(§1) • Solvents: 78.0 parts by weight of acetone • 1.5 parts by weight of dimethylformamide • Emulsifier: 0.5 part by weight of alkylaryl polyglycol ether
To produce a suitable preparation of active compound, one part by weight of active compound is mixed with the stated amounts of solvents and emulsifier, and the concentrate is diluted with emulsifier-containing water to the desired concentration. […].
After 7 days, the effect in % is determined. 100% means that all beetle larvae have been killed; 0% means that none of the beetle larvae have been killed.

[2] = system: green peach aphid (Myzus persicae); test: Myzus test (MYZUPE spray treatment); format: in vivo; conditions: application rate 500 g/ha; Chinese cabbage leaf discs sprayed; after 6 days
Experimental: Myzus Test (MYZUPE Spray Treatment)
• Solvents: 78 parts by weight of acetone • 1.5 parts by weight of dimethylformamide • Emulsifier: 0.5 part by weight of alkylaryl polyglycol ether
To produce a suitable preparation of active compound, 1 part by weight of active compound is mixed with the stated amounts of solvent and emulsifier, and the concentrate is diluted with emulsifier-containing water to the desired concentration. Discs of Chinese cabbage (Brassica pekinensis) which are infested by all stages of the green peach aphid (Myzus persicae) are sprayed with an active compound preparation of the desired concentration. After 6 days, the effect in % is determined. 100% means that all aphids have been killed; 0% means that none of the aphids have been killed.

[3] = system: greenhouse red spider mite (Tetranychus urticae); test: Tetranychus test; OP-resistant (TETRUR spray treatment); format: in vivo; conditions: application rate 100 g/ha; bean leaf discs sprayed; after 6 days
Experimental: Tetranychus Test; OP-Resistant (TETRUR Spray Treatment)
as §1
To produce a suitable preparation of active compound, 1 part by weight of active compound is mixed with the stated amounts of solvent and emulsifier, and the concentrate is diluted with emulsifier-containing water to the desired concentration. Discs of bean leaves (Phaseolus vulgaris), which are infested by all stages of the greenhouse red spider mite (Tetranychus urticae) are sprayed with an active compound preparation of the desired concentration.
After 6 days, the effect in % is determined. 100% means that all spider mites have been killed; 0% means that none of the spider mites have been killed.

[4] = Text: Use is made of leaves which, fully developed, are cut from apple trees of the cultivar Golden Delicious.
Only the cuticles, free from hairs and stoma, of the upper sides of the leaves are then used. They are washed repeatedly alternating with water and a buffer solution of pH 7. The clean cuticles obtained are then mounted on Teflon plates and smoothed and dried with a gentle stream of air.
In the next step, the cuticle membranes obtained in this manner are placed into stainless steel diffusion cells (=transport chambers) for membrane transport studies. To this end, the cuticles are placed with a pincette into the centre of the edges, coated with silicone fat, of the diffusion cells and closed with a ring, which is also treated with fat. The arrangement is chosen such that the morphological outside of the cuticles is facing outwards, i.e. exposed to air, whereas the original inside is facing the interior of the diffusion cell.
The diffusion cells are filled with a 30% strength ethylene glycol/water solution. To determine the penetration, in each case 10 μl of the spray liquor of the composition below are applied to the outside of the cuticles. The spray liquor is prepared using local tap water of medium hardness.
After the application of the spray liquors, the water is allowed to evaporate and the chambers are inverted and placed into thermostatic tubs in which temperature and atmospheric humidity over the cuticles can be adjusted using a gentle stream of air onto the cuticles with the spray coating (35° C., 60% rh).

[5] = system: caterpillars of the armyworm (Spodoptera frugiperda); test: Spodoptera frugiperda test (SPODFR spray treatment); format: in vivo; conditions: application rate 500 g/ha; maize leaf discs sprayed; after 7 days
Experimental: Spodoptera frugiperda Test (SPODFR Spray Treatment)
as §1
To produce a suitable preparation of active compound, 1 part by weight of active compound is mixed with the stated amounts of solvent and emulsifier, and the concentrate is diluted with emulsified water to the desired concentration. Discs of maize leaves (Zea mays) are sprayed with an active compound preparation of the desired concentration and, after drying, populated with caterpillars of the armyworm (Spodoptera frugiperda).
After 7 days, the effect in % is determined. 100% means that all caterpillars have been killed; 0% means that none of the caterpillars have been killed.

Meloidogyne incognita = Meloidogyne incognita test (MELGIN); format: in vivo; conditions: application rate 20 ppm; lettuce roots; after 14 days
Experimental: Meloidogyne incognita Test (MELGIN)
as §1
To produce a suitable preparation of active compound, 1 part by weight of active compound is mixed with the stated amounts of solvents and emulsifier, and the concentrate is diluted with water to the desired concentration. Containers are filled with sand, solution of active compound, Meloidogyne incognita egg/larvae suspension and lettuce seeds. The lettuce seeds germinate and the plants develop. On the roots, galls are formed. After 14 days, the nematicidal activity is determined in % by the formation of galls. 100% means that no galls are found; 0% means that the number of galls on the treated plants corresponds to that of the untreated controls.

Boophilus microplus = Boophilus microplus test (BOOPMI injection); format: in vivo; conditions: application rate 20 μg/animal; injection into the abdomen; after 7 days
Experimental: Boophilus microplus Test (BOOPMI Injection)
(§2) • Solvent: Dimethyl sulphoxide
To produce a suitable preparation of active compound, 10 mg of active compound are mixed with 0.5 ml of solvent and the concentrate is diluted with solvent to the desired concentration. The solution of active compound is injected into the abdomen (Boophilus microplus) and the animals are transferred into dishes and stored in a climatized room. The efficacy is monitored for deposition of fertile eggs.
After 7 days, the effect in % is determined. 100% means that none of the ticks has laid any fertile eggs.

Lucilia cuprina larvae = test: Lucilia cuprina test (LUCICU); format: in vivo; conditions: application rate 100 ppm; treated horse meat; after 2 days
Experimental: Lucilia cuprina test (LUCICU)
as §2
To produce a suitable preparation of active compound, 10 mg of active compound are mixed with 0.5 ml of dimethyl sulphoxide and the concentrate is diluted with water to the desired concentration. Containers containing horse meat treated with the active compound preparation of the desired concentration are populated with about 20 Lucilia cuprina larvae.
After 2 days, the kill in % is determined. 100% means that all larvae have been killed; 0% means that none of the larvae have been killed.

SMILES | efficacy (beetle larvae killed) [1] | efficacy (aphids killed) [2] | efficacy (spider mites killed) [3] | Penetration after 48 h/% EC + AS (0.7 g/l) [4] | Penetration after 48 h/% EC + RME (1 g/l) [4] | Penetration after 48 h/% EC + RME (1 g/l) + AS (0.7 g/l) [4] | efficacy (caterpillars killed) [5] | efficacy (nematicidal activity by formation of galls) (Meloidogyne incognita) | efficacy (deposition of fertile eggs) (Boophilus microplus) | efficacy (kill of larvae) (Lucilia cuprina larvae)
CCON1CCC2(CC1)NC(=O)C(c1c(CC)ccc(-c3ccc(Cl)cc3)c1CC)=C2O [Example I-1-a-25] | 100% | 100% | 100% | 2% | 4% | 10% | – | – | – | –
Cc1ccc(-c2ccc(Cl)cc2)c(Cl)c1C1=C(O)C2(CCOCC2)NC1=O [Example I-1-a-11] | – | 100% | 100% | – | – | – | 83% | > 80% | 90% | 100%
Cc1ccc(-c2ccc(F)cc2)c(Cl)c1C1=C(O)C2(CCOCC2)NC1=O [Example I-1-a-12] | 100% | 100% | 100% | – | – | – | 100% | – | 95% | 100%
COC1CCC2(CC1)NC(=O)C(c1c(Cl)ccc(-c3ccc(F)cc3)c1C)=C2O (stereo not drawn) [Example I-1-a-14] | 100% | 100% | 90% | – | – | – | 100% | – | 95% | 100%
